Experimental data taken from US20220235005A1, “FUNGICIDAL N-(PYRID-3-YL)CARBOXAMIDES” (BASF SE, priority 2019, published 2022).

**Q.** Which melting point does the source give for `Cc1cc(NC(=O)/C(=N/OCC(C)C)c2ccccc2)cnc1C` [Ex-8, (2E)-N-(5,6-dimethyl-3-pyridyl)-2-isobutoxyimino-2-phenyl-acetamide] here?
**A.** 169 °C
